From US8952024B2, “Herbicidal pyrimidone derivatives” (E I du Pont de Nemours and Company, priority 2009, dated 2015)

What was measured:
Format in all cases: in vivo
[1] = test system: ragweed (common ragweed, Ambrosia elatior); test: Test B pre-/postemergence plant response; conditions: for Ragweed plant response rating (0 to 100 scale): 62 g ai/ha, postemergence, 0 is no effect, 100 is complete control, 13 to 15 days; for Plant response rating, Ragweed: Postemergence
Outline: (§1)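 Ratings reflect visual comparison with untreated controls 13 to 15 days after application, from 0 (no effect) to 100 (complete control). Application was preemergence to seeded loam/sand soil or postemergence to 1- to 4-leaf plants, with compound in a non-phytotoxic, surfactant-containing solvent.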

corn (Zea mays) = test: Test B pre-/postemergence plant response; conditions: for Corn plant response rating (0 to 100 scale): 62 g ai/ha, 0 is no effect, 13 to 15 days
Outline: as §1

soybean (Glycine max) = test: Test B pre-/postemergence plant response; conditions: for Soybean plant response rating (0 to 100 scale): 62 g ai/ha, postemergence, 0 is no effect, 100 is complete control, 13 to 15 days; for Plant response rating, Soybean: Postemergence
Outline: as §1

[2] = test system: bermudagrass (Cynodon dactylon); test: Test B pre-/postemergence plant response; conditions: for Bermudagrass plant response rating (0 to 100 scale): 62 g ai/ha, 0 is no effect, 13 to 15 days
Outline: as §1

[3] = test system: pigweed (Amaranthus retroflexus); test: Test B pre-/postemergence plant response; conditions: for Pigweed plant response rating (0 to 100 scale): 62 g ai/ha, 0 is no effect, 13 to 15 days
Outline: as §1

[4] = test system: cocklebur (Xanthium strumarium); test: Test B pre-/postemergence plant response; conditions: for Cocklebur plant response rating (0 to 100 scale): 62 g ai/ha, 0 is no effect, 13 to 15 days
Outline: as §1

[5] = test system: johnsongrass (Sorghum halepense); test: Test B pre-/postemergence plant response; conditions: for Johnsongrass plant response rating (0 to 100 scale): 62 g ai/ha, 0 is no effect, 13 to 15 days
Outline: as §1

kochia (Kochia scoparia) = test: Test B pre-/postemergence plant response; conditions: for Kochia plant response rating (0 to 100 scale): 62 g ai/ha, postemergence, 0 is no effect, 100 is complete control, 13 to 15 days; for Plant response rating, Kochia: Postemergence
Outline: as §1

[6] = test system: lambsquarters (Chenopodium album); test: Test B pre-/postemergence plant response; conditions: for Lambsquarters plant response rating (0 to 100 scale): 62 g ai/ha, 0 is no effect, 13 to 15 days
Outline: as §1

wild oat (Avena fatua) = test: Test B pre-/postemergence plant response; conditions: for Oat, Wild plant response rating (0 to 100 scale): 62 g ai/ha, 0 is no effect, 13 to 15 days
Outline: as §1

[7] = test system: giant foxtail (Setaria faberii); test: Test B pre-/postemergence plant response; conditions: for Foxtail, Giant plant response rating (0 to 100 scale): 62 g ai/ha, 0 is no effect, 13 to 15 days
Outline: as §1

[8] = test system: green foxtail (Setaria viridis); test: Test B pre-/postemergence plant response; conditions: for Foxtail, Green plant response rating (0 to 100 scale): 62 g ai/ha, 0 is no effect, 13 to 15 days
Outline: as §1

rice (Oryza sativa) = test: Test B flooded paddy test; conditions: for Plant response rating, Rice: Flood (flooded paddy test), 13 to 15 days; for Rice plant response rating: Flood, 31 g ai/ha, scale 0 to 100 (0 no effect, 100 complete control)
Outline: (§2)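 Visual scores run from 0 (no effect) to 100 (complete control), assigned by comparison with controls 13 to 15 days after treatment. Test compounds went straight into water standing 3 cm above the soil, around plants at the 2-leaf stage kept in a greenhouse.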

[9] = test system: umbrella sedge (Cyperus difformis); test: Test B flooded paddy test; conditions: for Plant response rating, Flood, Sedge, Umbrella: 250 g ai/ha, flooded paddy test, visual rating on 0 to 100 scale (0 no effect, 100 complete control) after 13 to 15 days; for Plant response rating, Sedge, Umbrella: Flood (flooded paddy test), 13 to 15 days; for Sedge, Umbrella plant response rating: Flood, 31 g ai/ha, scale 0 to 100 (0 no effect, 100 complete control)
Outline: as §2

[10] = test system: ducksalad (Heteranthera limosa); test: Test B flooded paddy test; conditions: for Plant response rating, Flood, Ducksalad: 250 g ai/ha, flooded paddy test, visual rating on 0 to 100 scale (0 no effect, 100 complete control) after 13 to 15 days; for Plant response rating, Ducksalad: Flood (flooded paddy test), 13 to 15 days; for Ducksalad plant response rating: Flood, 31 g ai/ha, scale 0 to 100 (0 no effect, 100 complete control)
Outline: as §2

[11] = test system: barnyardgrass (Echinochloa crus-galli); test: Test B flooded paddy test; conditions: for Plant response rating, Flood, Barnyardgrass: 250 g ai/ha, flooded paddy test, visual rating on 0 to 100 scale (0 no effect, 100 complete control) after 13 to 15 days; for Plant response rating, Barnyardgrass: Flood (flooded paddy test), 13 to 15 days; for Barnyardgrass plant response rating: Flood, 31 g ai/ha, scale 0 to 100 (0 no effect, 100 complete control)
Outline: as §2

[12] = 31 g ai/ha, 0 to 100 scale (0 no effect, 100 complete control)
[13] = 125 g ai/ha, scale 0 to 100 (0 no effect, 100 complete control)
[14] = 250 g ai/ha, scale 0 to 100 (0 no effect, 100 complete control)
[15] = postemergence, 100 is complete control
[16] = Postemergence, 31 g ai/ha, 0 to 100 scale (0 no effect, 100 complete control)
[17] = Postemergence, 125 g ai/ha, scale 0 to 100 (0 no effect, 100 complete control)
[18] = Postemergence, 250 g ai/ha, scale 0 to 100 (0 no effect, 100 complete control)
[19] = 62 g ai/ha, scale of 0 to 100 where 0 is no effect and 100 is complete control
[20] = 125 g ai/ha, scale 0 to 100, 0 is no effect, 100 is complete control
[21] = 31 g ai/ha, postemergence, scale 0 to 100, 0 is no effect, 100 is complete control

## COCCCn1c(-c2cccc(F)c2)ncc(C(=O)C2=C(O)CCCC2=O)c1=O [Compound 126]
[1]
  Ragweed plant response rating (0 to 100 scale): 75
[1]; [12]
  Plant response rating, Ragweed: 55
[1]; [13]
  Plant response rating, Ragweed: 85
[1]; [14]
  Plant response rating, Ragweed: 90
Corn (Zea mays); [15]
  Corn plant response rating (0 to 100 scale): 30
Corn (Zea mays); [16]
  Plant response rating, Corn: 10
Corn (Zea mays); [17]
  Plant response rating, Corn: 55
Corn (Zea mays); [18]
  Plant response rating, Corn: 80
Soybean (Glycine max)
  Soybean plant response rating (0 to 100 scale): 75
Soybean (Glycine max); [12]
  Plant response rating, Soybean: 70
Soybean (Glycine max); [13]
  Plant response rating, Soybean: 85
Soybean (Glycine max); [14]
  Plant response rating, Soybean: 98
[2]; [15]
  Bermudagrass plant response rating (0 to 100 scale): 85
[2]; [16]
  Plant response rating, Bermudagrass: 75
[2]; [17]
  Plant response rating, Bermudagrass: 90
[2]; [18]
  Plant response rating, Bermudagrass: 95
[3]; [15]
  Pigweed plant response rating (0 to 100 scale): 95
[3]; [16]
  Plant response rating, Pigweed: 75
[3]; [17]
  Plant response rating, Pigweed: 98
[3]; [18]
  Plant response rating, Pigweed: 98
[4]; [15]
  Cocklebur plant response rating (0 to 100 scale): 65
[4]; [16]
  Plant response rating, Cocklebur: 15
[4]; [17]
  Plant response rating, Cocklebur: 80
[4]; [18]
  Plant response rating, Cocklebur: 98
[5]; [15]
  Johnsongrass plant response rating (0 to 100 scale): 65
[5]; [16]
  Plant response rating, Johnsongrass: 65
[5]; [17]
  Plant response rating, Johnsongrass: 85
[5]; [18]
  Plant response rating, Johnsongrass: 90
Kochia (Kochia scoparia)
  Kochia plant response rating (0 to 100 scale): 25
Kochia (Kochia scoparia); [12]
  Plant response rating, Kochia: 10
Kochia (Kochia scoparia); [13]
  Plant response rating, Kochia: 25
Kochia (Kochia scoparia); [14]
  Plant response rating, Kochia: 85
[6]; [15]
  Lambsquarters plant response rating (0 to 100 scale): 85
[6]; [16]
  Plant response rating, Lambsquarters: 70
[6]; [17]
  Plant response rating, Lambsquarters: 85
[6]; [18]
  Plant response rating, Lambsquarters: 98
Wild oat (Avena fatua); [15]
  Oat, Wild plant response rating (0 to 100 scale): 10
Wild oat (Avena fatua); [16]
  Plant response rating, Oat, Wild: 5
Wild oat (Avena fatua); [17]
  Plant response rating, Oat, Wild: 35
Wild oat (Avena fatua); [18]
  Plant response rating, Oat, Wild: 50
[7]; [15]
  Foxtail, Giant plant response rating (0 to 100 scale): 80
[7]; [16]
  Plant response rating, Foxtail, Giant: 70
[7]; [17]
  Plant response rating, Foxtail, Giant: 85
[7]; [18]
  Plant response rating, Foxtail, Giant: 90
[8]; [15]
  Foxtail, Green plant response rating (0 to 100 scale): 80
[8]; [16]
  Plant response rating, Foxtail, Green: 50
[8]; [17]
  Plant response rating, Foxtail, Green: 90
[8]; [18]
  Plant response rating, Foxtail, Green: 95
Rice (Oryza sativa); 250 g ai/ha, flooded paddy test, visual rating on 0 to 100 scale (0 no effect, 100 complete control) after 13 to 15 days
  Plant response rating, Flood, Rice: 15
Rice (Oryza sativa); [19]
  Plant response rating, Rice: 0
Rice (Oryza sativa); [20]
  Plant response rating, Rice: 0
Rice (Oryza sativa)
  Rice plant response rating: 0
[9]
  Plant response rating, Flood, Sedge, Umbrella: 85
  Sedge, Umbrella plant response rating: 50
[9]; [19]
  Plant response rating, Sedge, Umbrella: 70
[9]; [20]
  Plant response rating, Sedge, Umbrella: 80
[10]
  Plant response rating, Flood, Ducksalad: 85
  Ducksalad plant response rating: 75
[10]; [19]
  Plant response rating, Ducksalad: 80
[10]; [20]
  Plant response rating, Ducksalad: 85
[11]
  Plant response rating, Flood, Barnyardgrass: 75
  Barnyardgrass plant response rating: 20
[11]; [19]
  Plant response rating, Barnyardgrass: 45
[11]; [20]
  Plant response rating, Barnyardgrass: 60

## CCCn1c(-c2cccc(OC)c2)ncc(C(=O)C2=C(O)CCCC2=O)c1=O [Compound 100]
[1]
  Ragweed plant response rating (0 to 100 scale): 70
[1]; [13]
  Plant response rating, Ragweed: 75
[1]; [14]
  Plant response rating, Ragweed: 80
Corn (Zea mays); [21]
  Plant response rating, Corn: 0
Corn (Zea mays); [15]
  Corn plant response rating (0 to 100 scale): 10
Corn (Zea mays); [17]
  Plant response rating, Corn: 20
Corn (Zea mays); [18]
  Plant response rating, Corn: 45
Soybean (Glycine max)
  Soybean plant response rating (0 to 100 scale): 98
Soybean (Glycine max); [13]
  Plant response rating, Soybean: 100
Soybean (Glycine max); [14]
  Plant response rating, Soybean: 100
[2]; [21]
  Plant response rating, Bermudagrass: 70
[2]; [15]
  Bermudagrass plant response rating (0 to 100 scale): 70
[2]; [17]
  Plant response rating, Bermudagrass: 75
[2]; [18]
  Plant response rating, Bermudagrass: 85
[3]; [21]
  Plant response rating, Pigweed: 90
[3]; [15]
  Pigweed plant response rating (0 to 100 scale): 98
[3]; [17]
  Plant response rating, Pigweed: 98
[3]; [18]
  Plant response rating, Pigweed: 98
[4]; [21]
  Plant response rating, Cocklebur: 40
[4]; [15]
  Cocklebur plant response rating (0 to 100 scale): 85
[4]; [17]
  Plant response rating, Cocklebur: 95
[4]; [18]
  Plant response rating, Cocklebur: 98
[5]; [21]
  Plant response rating, Johnsongrass: 0
[5]; [15]
  Johnsongrass plant response rating (0 to 100 scale): 5
[5]; [17]
  Plant response rating, Johnsongrass: 10
[5]; [18]
  Plant response rating, Johnsongrass: 25
Kochia (Kochia scoparia)
  Kochia plant response rating (0 to 100 scale): 95
Kochia (Kochia scoparia); [13]
  Plant response rating, Kochia: 98
Kochia (Kochia scoparia); [14]
  Plant response rating, Kochia: 100
[6]; [21]
  Plant response rating, Lambsquarters: 95
[6]; [15]
  Lambsquarters plant response rating (0 to 100 scale): 98
[6]; [17]
  Plant response rating, Lambsquarters: 98
[6]; [18]
  Plant response rating, Lambsquarters: 98
Wild oat (Avena fatua); [21]
  Plant response rating, Oat, Wild: 0
Wild oat (Avena fatua); [15]
  Oat, Wild plant response rating (0 to 100 scale): 10
Wild oat (Avena fatua); [17]
  Plant response rating, Oat, Wild: 30
Wild oat (Avena fatua); [18]
  Plant response rating, Oat, Wild: 30
[7]; [21]
  Plant response rating, Foxtail, Giant: 70
[7]; [15]
  Foxtail, Giant plant response rating (0 to 100 scale): 75
[7]; [17]
  Plant response rating, Foxtail, Giant: 80
[7]; [18]
  Plant response rating, Foxtail, Giant: 85
[8]; [21]
  Plant response rating, Foxtail, Green: 20
[8]; [15]
  Foxtail, Green plant response rating (0 to 100 scale): 70
[8]; [17]
  Plant response rating, Foxtail, Green: 80
[8]; [18]
  Plant response rating, Foxtail, Green: 85
Rice (Oryza sativa); [19]
  Plant response rating, Rice: 30
Rice (Oryza sativa); [20]
  Plant response rating, Rice: 35
Rice (Oryza sativa)
  Rice plant response rating: 0
[9]
  Plant response rating, Flood, Sedge, Umbrella: 85
  Sedge, Umbrella plant response rating: 40
[9]; [19]
  Plant response rating, Sedge, Umbrella: 75
[9]; [20]
  Plant response rating, Sedge, Umbrella: 80
[10]
  Plant response rating, Flood, Ducksalad: 85
  Ducksalad plant response rating: 35
[10]; [19]
  Plant response rating, Ducksalad: 75
[10]; [20]
  Plant response rating, Ducksalad: 85
[11]
  Plant response rating, Flood, Barnyardgrass: 75
  Barnyardgrass plant response rating: 20
[11]; [19]
  Plant response rating, Barnyardgrass: 45
[11]; [20]
  Plant response rating, Barnyardgrass: 60
